Species: Homo sapiens
Experiment: In vitro inhibition of platelet aggregation by measuring its effect on the ADP-stimulated aggregation of human platelets
Assay type: functional

| SMILES | IC50 [nM] |
| --- | --- |
| CCCCS(=O)(=O)NC(CC#Cc1ccc2nc(C)n(CCC3CCNCC3)c(=O)c2c1)C(=O)O (configuration not stated) | 43 |
| CCCCS(=O)(=O)NC(CC#Cc1ccc2[nH]c(=O)n(CCC3CCNCC3)c(=O)c2c1)C(=O)O (configuration not stated) | 37 |
| CCCCS(=O)(=O)NC(CCCc1ccc2c(c1)c(=O)n(CCC1CCNCC1)c(=O)n2C)C(=O)O (configuration not stated) | 140 |
| CCCCS(=O)(=O)NC(CCCc1ccc2c(c1)c(=O)n(CCC1CCNCC1)c(=O)n2Cc1ccccc1)C(=O)O (configuration not stated) | 160 |
| CCCCS(=O)(=O)NC(CNC(=O)c1ccc2[nH]c(=O)n(CCC3CCNCC3)c(=O)c2c1)C(=O)O (configuration not stated) | 210 |
| CCCCS(=O)(=O)NC(CC#Cc1ccc2c(c1)c(=O)n(CCC1CCNCC1)c(=O)n2C)C(=O)O (configuration not stated) | 67 |
| CCCCS(=O)(=O)NC(CC#Cc1ccc2c(c1)c(=O)n(CCC1CCNCC1)c(=O)n2Cc1ccncc1)C(=O)O (configuration not stated) | 74 |
| CCCCS(=O)(=O)NC(CC#Cc1ccc2c(c1)c(=O)n(CCC1CCNCC1)c(=O)n2Cc1ccccc1)C(=O)O (configuration not stated) | 61 |
| CCCCS(=O)(=O)N[C@@H](Cc1ccc(OCCCCC2CCNCC2)cc1)C(=O)O | 15 |
| CCCCS(=O)(=O)N[C@@H](CNC(=O)c1ccc2c(c1)C(=O)N(CCC1CCNCC1)C2)C(=O)O | 9 |
| CCCCS(=O)(=O)NC(CCCc1ccc2c(c1)c(=O)n(CCC1CCNCC1)c(=O)n2Cc1ccncc1)C(=O)O (configuration not stated) | 100 |
| CCCCS(=O)(=O)NC(CCCc1ccc2[nH]c(=O)n(CCC3CCNCC3)c(=O)c2c1)C(=O)O (configuration not stated) | 160 |

Reference: ChEMBL document CHEMBL1130763, “Nonpeptide glycoprotein IIb/IIIa inhibitors: substituted quinazolinediones and quinazolinones as potent fibrinogen receptor antagonists” (Bioorg Med Chem Lett, 1998)
